Laboratory results from patent US10517889B2, “Modulators of SMAD7 expression” (Ionis Pharmaceuticals, Inc., priority 2017, dated 2019).
Strand notation (5' to 3'): a small letter for the sugar, then the base; units joined by * are phosphorothioate-linked, units joined directly phosphodiester-linked; [ ] holds rarer units or linkages, { } end groups; capitals alone tell only the bases. k = constrained ethyl (cEt); [5mC] = 5-methylcytosine; d = 2'-deoxy (DNA)

Tested on: human SMAD7 mRNA
Assay: Antisense inhibition of human SMAD7 mRNA expression in Hep3B cells by 3-10-3 cEt gapmers, 10,000 nM, electroporation (Example 2)
Type: cell-based
Conditions: Hep3B cells, 10,000 nM antisense oligonucleotide, electroporation, approximately 24 hours, RT-PCR primer probe set RTS5062, relative to untreated control cells
How it was run: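 Hep3B, 20,000 cells/well; electroporation, 10,000 nM ASO; ~24 h. Readout: SMAD7 mRNA by qRT-PCR (RTS5062), RIBOGREEN-normalised; % inhibition vs untreated.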

Substance | % Inhibition [%]
798853 (k[5mC]*k[5mC]*kA*d[5mC]*dA*d[5mC]*dA*d[5mC]*d[5mC]*dA*dT*d[5mC]*d[5mC]*kA*k[5mC]*k[5mC]; antisense) [compound 798853] | 7
798854 (kT*kA*k[5mC]*dA*d[5mC]*d[5mC]*d[5mC]*dA*d[5mC]*dA*d[5mC]*dA*d[5mC]*k[5mC]*kA*kT; antisense) [compound 798854] | 25
798855 (kT*kT*kG*dT*dA*d[5mC]*dA*d[5mC]*d[5mC]*d[5mC]*dA*d[5mC]*dA*k[5mC]*kA*k[5mC]; antisense) [compound 798855] | 11
798856 (kT*kG*k[5mC]*dG*dG*dT*dT*dG*dT*dA*d[5mC]*dA*d[5mC]*k[5mC]*k[5mC]*kA; antisense) [compound 798856] | 67
798857 (kT*kG*k[5mC]*dT*dG*d[5mC]*dG*dG*dT*dT*dG*dT*dA*k[5mC]*kA*k[5mC]; antisense) [compound 798857] | 11
798858 (kG*kG*kT*dA*dA*d[5mC]*dT*dG*d[5mC]*dT*dG*d[5mC]*dG*kG*kT*kT; antisense) [compound 798858] | 46
798859 (k[5mC]*kG*kG*dA*d[5mC]*dT*dT*dG*dA*dT*dG*dA*dA*kG*kA*kT; antisense) [compound 798859] | 14
798860 (kT*kG*kG*d[5mC]*dG*dG*dA*d[5mC]*dT*dT*dG*dA*dT*kG*kA*kA; antisense) [compound 798860] | 22
798871 (kA*kA*kA*dG*d[5mC]*d[5mC]*dT*dT*dG*dA*dT*dG*dG*kA*kG*kA; antisense) [compound 798871] | 20
798872 (kT*kA*kG*dT*d[5mC]*dG*dA*dA*dA*dG*d[5mC]*d[5mC]*dT*kT*kG*kA; antisense) [compound 798872] | 2
798873 (kG*k[5mC]*kT*dG*dT*dA*d[5mC]*dG*d[5mC]*d[5mC]*dT*dT*d[5mC]*kT*k[5mC]*kG; antisense) [compound 798873] | 27
798874 (kG*k[5mC]*kA*dG*dG*d[5mC]*dT*dG*dT*dA*d[5mC]*dG*d[5mC]*k[5mC]*kT*kT; antisense) [compound 798874] | 27
798875 (k[5mC]*kG*k[5mC]*dT*dG*d[5mC]*dA*dG*dG*d[5mC]*dT*dG*dT*kA*k[5mC]*kG; antisense) [compound 798875] | 58
798876 (kG*kG*k[5mC]*d[5mC]*dG*d[5mC]*dT*dG*d[5mC]*dA*dG*dG*d[5mC]*kT*kG*kT; antisense) [compound 798876] | 50
798877 (k[5mC]*kA*kT*dT*dG*dG*dG*d[5mC]*d[5mC]*dG*d[5mC]*dT*dG*k[5mC]*kA*kG; antisense) [compound 798877] | 24
798878 (k[5mC]*kT*kG*d[5mC]*dT*dG*d[5mC]*dA*dT*dA*dA*dA*d[5mC]*kT*k[5mC]*kG; antisense) [compound 798878] | 49
798889 (k[5mC]*kA*k[5mC]*dA*dA*dA*dG*d[5mC]*dT*dG*dA*dT*d[5mC]*kT*kG*k[5mC]; antisense) [compound 798889] | 0
798890 (k[5mC]*kT*kT*d[5mC]*dA*d[5mC]*dA*dA*dA*dG*d[5mC]*dT*dG*kA*kT*k[5mC]; antisense) [compound 798890] | 40
798891 (kG*k[5mC]*k[5mC]*d[5mC]*dT*dT*d[5mC]*dA*d[5mC]*dA*dA*dA*dG*k[5mC]*kT*kG; antisense) [compound 798891] | 58
798892 (k[5mC]*k[5mC]*k[5mC]*d[5mC]*dA*dG*d[5mC]*d[5mC]*d[5mC]*dT*dT*d[5mC]*dA*k[5mC]*kA*kA; antisense) [compound 798892] | 39
798893 (kT*kG*kG*d[5mC]*d[5mC]*d[5mC]*d[5mC]*dA*dG*d[5mC]*d[5mC]*d[5mC]*dT*kT*k[5mC]*kA; antisense) [compound 798893] | 77
798894 (kA*kG*k[5mC]*dA*d[5mC]*dT*dG*dG*d[5mC]*d[5mC]*d[5mC]*d[5mC]*dA*kG*k[5mC]*k[5mC]; antisense) [compound 798894] | 55

Same assay, conditions: Hep3B cells, electroporation with 10,000 nM antisense oligonucleotide, approximately 24 hours, SMAD7 mRNA by RT-PCR (RTS5062), relative to untreated control cells

Substance | % Inhibition [%]
798843 (k[5mC]*kT*kG*d[5mC]*dA*d[5mC]*d[5mC]*dA*dG*d[5mC]*dT*dG*dA*k[5mC]*kT*k[5mC]; antisense) [compound 798843] | 37
798844 (kA*k[5mC]*k[5mC]*dT*dT*d[5mC]*dT*dG*d[5mC]*dA*d[5mC]*d[5mC]*dA*kG*k[5mC]*kT; antisense) [compound 798844] | 30
798845 (k[5mC]*kG*k[5mC]*dA*d[5mC]*d[5mC]*dT*dT*d[5mC]*dT*dG*d[5mC]*dA*k[5mC]*k[5mC]*kA; antisense) [compound 798845] | 18
798846 (k[5mC]*kT*k[5mC]*d[5mC]*dG*d[5mC]*dA*d[5mC]*d[5mC]*dT*dT*d[5mC]*dT*kG*k[5mC]*kA; antisense) [compound 798846] | 40
798847 (kT*kT*kG*d[5mC]*dT*d[5mC]*d[5mC]*dG*d[5mC]*dA*d[5mC]*d[5mC]*dT*kT*k[5mC]*kT; antisense) [compound 798847] | 24
798848 (kG*kA*kT*dT*dT*dT*dG*d[5mC]*dT*d[5mC]*d[5mC]*dG*d[5mC]*kA*k[5mC]*k[5mC]; antisense) [compound 798848] | 40
798849 (k[5mC]*kA*kG*d[5mC]*d[5mC]*dG*dA*dT*dT*dT*dT*dG*d[5mC]*kT*k[5mC]*k[5mC]; antisense) [compound 798849] | 21
798850 (k[5mC]*kA*kG*d[5mC]*dT*dG*dG*dA*dT*dG*d[5mC]*d[5mC]*dG*k[5mC]*kA*kG; antisense) [compound 798850] | 12
798851 (kA*k[5mC]*k[5mC]*dA*dT*d[5mC]*d[5mC]*dA*d[5mC]*d[5mC]*dT*d[5mC]*d[5mC]*k[5mC]*kG*k[5mC]; antisense) [compound 798851] | 21
798861 (kG*kT*kG*dT*dG*dG*d[5mC]*dG*dG*dA*d[5mC]*dT*dT*kG*kA*kT; antisense) [compound 798861] | 24
798862 (kT*k[5mC]*k[5mC]*dA*dG*dT*dG*dT*dG*dG*d[5mC]*dG*dG*kA*k[5mC]*kT; antisense) [compound 798862] | 20
798863 (kG*kG*kG*dT*dT*dG*dT*d[5mC]*d[5mC]*dA*dG*dT*dG*kT*kG*kG; antisense) [compound 798863] | 41
798864 (kG*kT*k[5mC]*d[5mC]*dG*dG*dG*dT*dT*dG*dT*d[5mC]*d[5mC]*kA*kG*kT; antisense) [compound 798864] | 33
798865 (kG*kG*kA*dG*dT*d[5mC]*d[5mC]*dG*dG*dG*dT*dT*dG*kT*k[5mC]*k[5mC]; antisense) [compound 798865] | 8
798866 (kG*kT*k[5mC]*d[5mC]*dT*dG*dG*dA*dG*dT*d[5mC]*d[5mC]*dG*kG*kG*kT; antisense) [compound 798866] | 20
798867 (kT*kT*kG*dT*dG*dT*dA*d[5mC]*d[5mC]*dA*dA*d[5mC]*dA*kG*k[5mC]*kG; antisense) [compound 798867] | 29
798868 (kA*k[5mC]*k[5mC]*dT*dT*dG*dT*dG*dT*dA*d[5mC]*d[5mC]*dA*kA*k[5mC]*kA; antisense) [compound 798868] | 48
798869 (kA*kA*k[5mC]*dA*d[5mC]*d[5mC]*dT*dT*dG*dT*dG*dT*dA*k[5mC]*k[5mC]*kA; antisense) [compound 798869] | 41
798870 (kG*kG*kG*dA*dA*d[5mC]*dA*d[5mC]*d[5mC]*dT*dT*dG*dT*kG*kT*kA; antisense) [compound 798870] | 14
798879 (kA*k[5mC]*kG*dG*d[5mC]*dT*dG*d[5mC]*dT*dG*d[5mC]*dA*dT*kA*kA*kA; antisense) [compound 798879] | 57
798880 (kT*k[5mC]*k[5mC]*dA*d[5mC]*dG*dG*d[5mC]*dT*dG*d[5mC]*dT*dG*k[5mC]*kA*kT; antisense) [compound 798880] | 37
798881 (k[5mC]*k[5mC]*kG*dT*d[5mC]*d[5mC]*dA*d[5mC]*dG*dG*d[5mC]*dT*dG*k[5mC]*kT*kG; antisense) [compound 798881] | 14
798882 (kA*kG*k[5mC]*d[5mC]*d[5mC]*dG*dT*d[5mC]*d[5mC]*dA*d[5mC]*dG*dG*k[5mC]*kT*kG; antisense) [compound 798882] | 0
798883 (kT*kA*kA*dA*dG*d[5mC]*d[5mC]*d[5mC]*dG*dT*d[5mC]*d[5mC]*dA*k[5mC]*kG*kG; antisense) [compound 798883] | 0
798884 (k[5mC]*kG*kG*dT*dA*dA*dA*dG*d[5mC]*d[5mC]*d[5mC]*dG*dT*k[5mC]*k[5mC]*kA; antisense) [compound 798884] | 15
798885 (kG*k[5mC]*kA*d[5mC]*dG*dG*dT*dA*dA*dA*dG*d[5mC]*d[5mC]*k[5mC]*kG*kT; antisense) [compound 798885] | 43
798886 (kT*k[5mC]*kT*dG*d[5mC]*dA*d[5mC]*dG*dG*dT*dA*dA*dA*kG*k[5mC]*k[5mC]; antisense) [compound 798886] | 29
798887 (k[5mC]*kT*kG*dA*dT*d[5mC]*dT*dG*d[5mC]*dA*d[5mC]*dG*dG*kT*kA*kA; antisense) [compound 798887] | 26
798888 (kA*kA*kA*dG*d[5mC]*dT*dG*dA*dT*d[5mC]*dT*dG*d[5mC]*kA*k[5mC]*kG; antisense) [compound 798888] | 40
